The structures appear in SMILES notation.

This assay deals with T1, PecS (Agrobacterium fabrum, UniProt Q7D1T4).
T1 construct: full length, N-terminal His6-tag kept (pET100), E. coli BL21(DE3)pLysS; 18,923 Da tagged; dimer by known biology of MarR family
The assay can be described thus: DNase I footprinting of pecS-pecM DNA, loss of PecS protection. To be noted: 86 nM PecS, 250 mM Tris pH 8.0, 100 mM NaCl, room temperature, relief of DNA binding.

T1 sequence (Q7D1T4 entry or part of it): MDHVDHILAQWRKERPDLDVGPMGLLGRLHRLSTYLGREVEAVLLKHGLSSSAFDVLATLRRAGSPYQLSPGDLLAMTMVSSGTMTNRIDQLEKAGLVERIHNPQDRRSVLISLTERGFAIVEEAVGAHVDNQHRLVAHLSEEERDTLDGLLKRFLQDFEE

As to `O=c1[nH]c(=O)c2[nH]c(=O)[nH]c2[nH]1` [urate], the “DNase I footprinting of pecS-pecM DNA, loss of PecS protection” value (2.5 mM urate (dissolved in 0.4 M NaOH)) is “This result indicates a direct interaction between these purines and PecS”.
For `O=c1[nH]c(=O)c2[nH]cnc2[nH]1` [xanthine], the “DNase I footprinting of pecS-pecM DNA, loss of PecS protection” value (10 mM xanthine (dissolved in 0.4 M NaOH)) was “This result indicates a direct interaction between these purines and PecS”.

The values are drawn from paper PMC12288460, “The Agrobacterium fabrum efflux pump PecM is produced in response to the plant exudate 4-hydroxybenzaldehyde to avoid disruption of central metabolism” (Journal of Bacteriology, 2025).
